Experimental data taken from US6750244B2, “Compounds active at a novel site on receptor-operated calcium channels useful for treatment of neurological disorders and diseases” (NPS Pharmaceuticals, Inc., priority 1993, dated 2004).
Read-outs that look alike come from different tables or passages of the source.

Columns and labels:
NMDA receptor [1] = test: Inhibition of NMDA/glycine-induced increases in intracellular calcium in cultured rat cerebellar granule cells (RCGC); assay type: cell-based
[2] = molecular target: NMDA receptor-ionophore complex (site labeled by [3H]MK-801); test: Inhibition of [3H]MK-801 binding in rat cortical/hippocampal washed membrane preparations; conditions: read-out: IC50 (μM) vs. [3H]MK-801; rat cortical/hippocampal washed membranes
L-type calcium channel [3] = tested on: T1, L-type calcium channel; test: Inhibition of KCl depolarization-induced increases in intracellular calcium in cultured rat cerebellar granule cells; assay type: cell-based; conditions: read-out: L-type calcium channel: estimated IC50, KCl depolarization-induced increases in intracellular calcium; cultured rat cerebellar granule cells
T1 construct: L-type calcium channel: estimated IC50, KCl depolarization-induced increases in intracellular calcium; other: cultured
Excerpt: (§1) The ability of arylalkylamines to inhibit dihydropyridine-sensitive Ca^2+ channels was examined in cerebellar granule cells and a rat aortic smooth muscle cell line, A7r5 cells.

[4] = molecular target: voltage-sensitive Ca2+ channels (Rattus norvegicus, UniProt P22002); test: cell-based
voltage-sensitive Ca2+ channels, sequence (P22002 whole entry): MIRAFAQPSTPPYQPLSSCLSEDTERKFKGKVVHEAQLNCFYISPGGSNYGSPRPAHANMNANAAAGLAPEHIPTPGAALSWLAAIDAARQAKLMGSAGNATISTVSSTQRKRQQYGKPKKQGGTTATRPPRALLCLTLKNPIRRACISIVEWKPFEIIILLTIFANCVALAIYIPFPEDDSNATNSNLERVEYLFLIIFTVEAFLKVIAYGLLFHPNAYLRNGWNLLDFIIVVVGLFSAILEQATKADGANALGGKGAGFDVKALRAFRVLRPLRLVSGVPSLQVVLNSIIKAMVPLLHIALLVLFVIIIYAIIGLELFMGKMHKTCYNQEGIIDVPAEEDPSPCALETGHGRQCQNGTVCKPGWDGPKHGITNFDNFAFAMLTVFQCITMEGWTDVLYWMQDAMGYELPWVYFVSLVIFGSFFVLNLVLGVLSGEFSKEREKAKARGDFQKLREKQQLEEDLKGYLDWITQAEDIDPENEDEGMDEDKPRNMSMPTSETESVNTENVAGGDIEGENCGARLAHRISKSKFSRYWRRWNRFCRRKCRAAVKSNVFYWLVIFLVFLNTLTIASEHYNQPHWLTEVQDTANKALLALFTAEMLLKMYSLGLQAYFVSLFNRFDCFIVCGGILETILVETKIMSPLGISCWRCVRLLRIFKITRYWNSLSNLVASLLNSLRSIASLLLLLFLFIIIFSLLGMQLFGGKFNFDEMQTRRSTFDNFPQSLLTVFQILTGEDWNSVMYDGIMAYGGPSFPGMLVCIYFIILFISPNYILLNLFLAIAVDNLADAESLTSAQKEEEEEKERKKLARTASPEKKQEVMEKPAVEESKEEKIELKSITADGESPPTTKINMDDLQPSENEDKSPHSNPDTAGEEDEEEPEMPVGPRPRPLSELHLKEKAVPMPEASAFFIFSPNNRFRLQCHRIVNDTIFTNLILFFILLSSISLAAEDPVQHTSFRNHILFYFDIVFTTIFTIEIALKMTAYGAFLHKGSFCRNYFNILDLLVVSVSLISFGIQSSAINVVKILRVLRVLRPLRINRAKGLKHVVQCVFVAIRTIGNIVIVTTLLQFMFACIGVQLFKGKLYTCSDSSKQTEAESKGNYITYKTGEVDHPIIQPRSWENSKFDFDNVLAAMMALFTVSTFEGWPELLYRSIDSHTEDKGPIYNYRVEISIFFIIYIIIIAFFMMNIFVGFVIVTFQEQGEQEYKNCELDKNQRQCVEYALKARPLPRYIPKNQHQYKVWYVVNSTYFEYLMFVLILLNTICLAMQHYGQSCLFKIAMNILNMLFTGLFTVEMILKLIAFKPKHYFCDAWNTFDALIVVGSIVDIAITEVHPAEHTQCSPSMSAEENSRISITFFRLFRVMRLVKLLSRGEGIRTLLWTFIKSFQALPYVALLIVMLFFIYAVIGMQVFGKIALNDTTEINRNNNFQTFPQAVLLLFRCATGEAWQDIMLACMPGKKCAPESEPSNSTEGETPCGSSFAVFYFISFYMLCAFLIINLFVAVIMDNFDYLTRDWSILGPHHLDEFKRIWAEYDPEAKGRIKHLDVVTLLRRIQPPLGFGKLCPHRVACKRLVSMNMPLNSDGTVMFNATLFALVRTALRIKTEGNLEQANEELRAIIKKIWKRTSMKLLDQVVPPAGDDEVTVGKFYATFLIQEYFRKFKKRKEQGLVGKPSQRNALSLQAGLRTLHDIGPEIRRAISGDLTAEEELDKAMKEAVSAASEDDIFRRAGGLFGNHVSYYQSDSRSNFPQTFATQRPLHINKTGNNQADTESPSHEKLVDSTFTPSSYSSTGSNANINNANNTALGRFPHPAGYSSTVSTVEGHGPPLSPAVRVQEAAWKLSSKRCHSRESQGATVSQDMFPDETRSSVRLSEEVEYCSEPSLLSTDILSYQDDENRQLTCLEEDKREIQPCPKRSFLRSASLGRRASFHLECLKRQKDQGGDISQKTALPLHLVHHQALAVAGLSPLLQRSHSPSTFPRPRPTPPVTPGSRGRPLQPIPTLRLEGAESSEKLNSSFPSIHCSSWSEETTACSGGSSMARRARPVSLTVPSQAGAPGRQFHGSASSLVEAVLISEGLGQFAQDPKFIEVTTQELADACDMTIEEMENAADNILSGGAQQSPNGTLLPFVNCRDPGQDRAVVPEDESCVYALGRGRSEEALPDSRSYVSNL
Excerpt: as §1

AMPA receptor = conditions: read-out: IC50 for the AMPA receptor-mediated response; rat hippocampal slices
Procedure: (§2) Glutamate-mediated transmission at synapses of Schaffer collateral fibers and CA1 pyramidal cells was measured in slices of rat brain containing the hippocampus. This assay measures electrophysiologically the postsynaptic depolarization caused by the presynaptic release of glutamate, and can readily distinguish synaptic transmission mediated by NMDA or AMPA receptors.

NMDA receptor [5] = conditions: rat hippocampal slices
Procedure: as §2

[6] = tested on: forebrain ischemia (neuronal cell death); assay type: in vivo, gerbil; conditions: for reduction in neuronal death / protection in region CA1 of the hippocampus: 10 mg/kg, 7 days post-ischemia
Procedure: Blood flow to the brain was interrupted for 7 minutes by clamping the carotid arteries. The test compounds were administered as a 'single dose given intraperitoneally (i.p.) 30 minutes after reinstating blood flow. During the course of these experiments, the core body temperature of the animals was maintained at 37° C. to prevent any hypothermic reaction. […]

focal cerebral ischemia = test: Middle cerebral artery occlusion, permanent, surgical ligation; assay type: in vivo, rat; conditions: single dose 30 mg/kg i.p. 30 minutes after occlusion; 24 hours
Procedure: In the first study using this stroke model, one cerebral artery was permanently occluded by surgical ligation. The test compounds were administered 30 minutes after the occlusion by a single intraperitoneal (i.p.) injection. During the course of these experiments, the core body temperature of the animals was maintained at 37° C. to prevent any hypothermic reaction. Brains were assessed histologically for neuronal cell loss 24 hours later. Infarct volumes were calculated using the area of histological pallor from 10 slides and integrating the distance between each successive section.

sound-induced seizures = test: Sound-induced seizures in Frings mice (reflex epilepsy); assay type: in vivo
[7] = tested on: maximal electroshock-induced seizures; test: Maximal electroshock-induced seizures in mice; assay type: in vivo; conditions: CF1 mice, 4 μg i.c.v.
[8] = tested on: acetic acid-induced writhing; assay type: in vivo, mice; conditions: i.p.
thermal nociception [9] = assay type: in vivo, mice
thermal nociception [10] = assay type: in vivo, rats; conditions: 0.3-3 nmol i.th.
Procedure: In these experiments, a 52° C. hot plate was used as the nociceptive stimulus.

thermal nociception [11] = assay type: in vivo, rats; conditions: 0.3-3 nmol i.th.; remark: listed apart in the source
Procedure: In this standard assay, the thermal nociceptive stimulus was 52° C. warm water with the latency to tail flick or withdrawal taken as the endpoint.

[12] = tested on: formalin-induced flinching; assay type: in vivo, Sprague-Dawley rats; conditions: 0.3-10 nmol i.th.; for late-phase flinching, administered after the formalin: 10 min after formalin; for flinching behaviors, pretreatment to formalin: 10 min prior to formalin
locomotor activity = conditions: 32 mg/kg s.c.
Procedure: The first assay simply monitors locomotor activity during the first hour following peripheral (s.c. or i.p.) administration of test substance. […] Activity was quantified by counting the number of breaks in a phototube grid in a 60 min period.

[13] = Acute motor impairment (rotorod) in mice; conditions: Frings, mouse, in vivo, ip
Procedure: (§3) In this assay, Frings and CF1 mice were injected with test compound and placed on a knurled rod which rotated at a speed of 6 rpm. The ability of the mice to maintain equilibrium for long periods of time was determined; those mice that were unable to maintain equilibrium on the rotorod for 1 min in each of 3 trials were considered impaired.

motor performance [14] = test: Acute motor impairment (rotorod) in mice
Procedure: as §3

[15] = tested on: PCP-like discriminative stimulus effects; assay type: in vivo, rats; conditions: 1-30 mg/kg i.p.
Excerpt: In this assay, rats who have been trained to lever press for food reinforcement must select which of two levers in their cages is correct. The only stimulus they hive for selecting the correct lever is their ability to detect whether they received a PCP or vehicle injection After about two months of training, rats become very good at discriminating PCP from vehicle injections and can then be tested with other drugs to determine if they are discriminated as PCP. When tested in this procedure, other drugs which are known to produce a PCP-like intoxication substitute for PCP. These drugs include various PCP analogs such as ketamine and the noncompetitive NMDA receptor antagonist, MK-801.

motor performance [16] = tested on: motor performance
Excerpt: In this assay, animals are placed on a wire-holed grid suspended from a rotating metal bar which can be inverted. The animals are then scored for their ability to climb to the top or hang on to the grid. […] This assay provides an index of “behavioral disruption” that may result from ataxia, loss of the righting reflex, sedation, or muscle relaxation.

neuronal vacuolization = conditions: i.p.
[17] = tested on: mean arterial blood pressure; conditions: for Drop in Mean Arterial Blood Pressure / Drop in Mean Arterial Blood Pressure: duration: 1.5 μmoles/kg i.v., rats
NMDA receptors = conditions: patch clamp
mouse cortical neurons = test: cells; conditions: Cortical neurone, read-out: IC50, prevention of NMDA-induced cell death
Excerpt: The effective concentrations of NMDA receptor antagonists vary depending on the particular experimental conditions and the type of cell studied (cortical, hippocampal, striatal).

L-type calcium channel [18] = test: Inhibition of KCl depolarization-induced increases in intracellular calcium in cultured rat cerebellar granule cells; assay type: cell-based; conditions: cerebellar granule cells
Excerpt: as §1

audiogenic seizures = test: animal or person; assay type: in vivo, DBA/2 mice
Procedure: (§4) The first two models used DBA/2 mice which are prone to audiogenic seizures. […] The test substances were administered 15-30 min before the convulsant stimulus.

NMDA-induced seizures = test: animal or person; conditions: Mus musculus, sc, read-out: ED50 for NMDA stimulus
Procedure: as §4

induction of LTP = tested on: induction of LTP; design: species or system rat; conditions: at 100 μM
permanent focal ischemia = test: Permanent focal cerebral ischemia (middle cerebral artery occlusion, suture); assay type: in vivo, rat; conditions: 10 mg/kg i.p. immediately after onset of ischemic event; 24 hr
Procedure: In the second study of focal cerebral ischemia in the rat, the middle cerebral artery was permanently occluded by passing a small piece of suture thread through the carotid artery to the region of the middle cerebral artery. Core body temperature was maintained at 37° C. Compound 4, 10 mg/kg i.p. administered immediately after the onset of the ischemic event, produced a statistically significant reduction in the volume of the brain infarct (20%) recorded 24 hr later.

focal ischemia = test: Photothrombotic (Rose Bengal) model of focal cerebral ischemia; assay type: in vivo, rat; conditions: 10 mg/kg i.p. 30 min after the ischemic event
Excerpt: In a third model of focal cerebral ischemia in the rat, an ischemic infarct was produced by a photothrombotic method using the dye Rose Bengal.

temporary focal ischemia = test: Temporary focal cerebral ischemia (middle cerebral artery occlusion, suture withdrawn after 2 hr); assay type: in vivo, rat; conditions: 10 mg/kg i.p. immediately after onset of ischemic event; 72 hr
Procedure: In a fourth model of focal cerebral ischemia in the rat, the middle cerebral artery was temporarily occluded by passing a small piece of suture thread through the carotid artery to the region of the middle cerebral artery. The suture thread was withdrawn after an ischemic period of 2 hr. Core body temperature was maintained at 37° C. […]

learning = test: Morris water maze task; assay type: in vivo, rats; conditions: 10 mg/kg i.p. daily for 5 days
Procedure: In a second series of experiments, the effect of Compound 4 on learning in the Morris water maze task was evaluated. In this test, a hidden platform was placed in a fixed location in a circular steel tank, and submerged 2 cm below the surface of the water. Each rat was given 3 trials per day with a 10 min intertrial interval for 5 days. A trial was initiated by placing the rat in the water, nose facing the wall of the tank, at one of three predetermined starting locations. The order of the start location was varied daily. Learning was measured as a decrease in time required to swim to the platform. […] The animals remained on the platform for 10 sec before being removed from the tank. Ten min after the last training trial on day 5, the animals received a probe test. The platform was removed for this 1 trial task and the animals were allowed to swim for 60 sec to assess the spatial bias for the platform location. Two measures were recorded from this task: latency to first crossing the area where the platform had been, and total number of crossings. A total of 5 injections of Compound 4 were given to each rat. In the first series of experiments, Compound 4 was administered at 10 mg/kg i.p. daily for 5 days. […] In a subsequent study, six animals received 1 mg/kg i.p. for the first 4 days of training, while two animals received 5 mg/kg i.p. during this period. […]

[19] = read-out: IC50 against NMDA receptor-mediated increases in [Ca2+]i in cerebellar granule cells
[20] = intracerebroventricular (i.c.v.) injection

Compound: N=C(N)NCCCC(N)C(=O)NCCCNCCCNCCCCCNC(=O)C(CC(N)=O)NC(=O)Cc1ccc(O)cc1O (stereo not shown) [Compound 1]
- IC50 (NMDA receptor [1]; [19]): 0.102 µM
- IC50 [2]: 126 µM
- IC50 (L-type calcium channel [3]): 257 µM
- IC50 [4]: 808 µM
- IC50 (AMPA receptor): 647 µM
- Suppression of NMDA Receptor-Mediated Synaptic Transmission (concentration which suppresses) (NMDA receptor [5]): 10 to 30 µM
- IC50 (NMDA receptor [5]; read-out: IC50 for the NMDA receptor-mediated response): 20 µM
- reduction in neuronal death / protection in region CA1 of the hippocampus [6]: 23%
- protection against neuronal cell loss (focal cerebral ischemia): approximately 15%
- IC50, prevention of sound-induced seizures (sound-induced seizures; [20]): 0.63 µg
- IC50, prevention of sound-induced seizures (sound-induced seizures; intraperitoneal injection): 14.3 mg/kg
- effect against seizures elicited by maximal electroshock [7]: effective
- IC50, inhibition of acetic acid-induced writhing [8]: 10 mg/kg
- increase in latency to foot licking (thermal nociception [9]; 4 mg/kg s.c.): 136%
- increase in latency to jumping (thermal nociception [9]; 32 mg/kg s.c.): 360%
- antinociceptive effect, hot plate (thermal nociception [10]): dose- and time-dependent antinociceptive effects
- analgesic effect, tail flick (52° C. warm water) (thermal nociception [11]): dose- and time-dependent analgesic effect
- late-phase flinching, administered after the formalin [12]: significance was achieved only at the 10 nmol dose
- flinching behaviors, pretreatment to formalin [12]: effectively inhibited both early- and late-phase flinching behaviors
- effect on locomotor activity (locomotor activity): did not elicit hyperactivity
- TD50 [13]: 16.8 mg/kg
- motor impairment in CF1 mice (motor performance [14]; 4 μg i.c.v.): motor impairment
- dose that had to be exceeded before motor toxicity was evident (motor performance [14]; Frings mice, i.c.v.): exceeded 1.56 μg
- substitution for PCP [15]: did not substitute for PCP
- motor performance in the inverted grid assay (motor performance [16]; 32 mg/kg s.c.): did not lessen the ability of DBA/2 mice to right themselves
- dose without neuronal vacuolization (neuronal vacuolization): 100 mg/kg
- Drop in Mean Arterial Blood Pressure [17]: 65 mm Hg at
- Drop in Mean Arterial Blood Pressure: duration [17]: i.v., 60 min
- effect on responses to NMDA and kainate (NMDA receptors): blocked responses to NMDA at nanomolar concentrations without affecting the responses to kainate
- IC50 (mouse cortical neurons): 70 µM

Compound: NCCCNCCCCNCCCNCCCNCCCNC(=O)Cc1c[nH]c2ccccc12 [Compound 2]
- IC50 (NMDA receptor [1]; read-out: IC50 (μM) vs. NMDA, NMDA/glycine-induced increases in intracellular calcium, cultured rat cerebellar granule cells): 0.192 µM
- IC50 (NMDA receptor [1]; [19]): 0.161 µM
- concentrations inhibiting depolarization-induced increases in [Ca2+]i relative to those blocking responses to NMDA (L-type calcium channel [18]): 100 fold
- IC50 (L-type calcium channel [3]): 24 µM
- Suppression of NMDA Receptor-Mediated Synaptic Transmission (concentration which suppresses) (NMDA receptor [5]): 10 to 30 µM
- protection against neuronal cell death (CA1 of hippocampus, striatum and neocortex) ([6]; 20 mg/kg i.p. 30 minutes after reinstating blood flow, 4 days): significantly (p<0.05) protected against neuronal cell death
- protection of the striatum ([6]; doses as low as 1 mg/kg): > 98%
- ED50 (audiogenic seizures; Mus musculus, sc, read-out: ED50 for audiogenic stimulus): 0.13 mg/kg
- ED50 (NMDA-induced seizures): 0.083 mg/kg
- motor performance in the inverted grid assay (motor performance [16]; 20 mg/kg s.c.): without effect
- Drop in Mean Arterial Blood Pressure [17]: 40 mm Hg at
- Drop in Mean Arterial Blood Pressure: duration [17]: i.v., 120 min
- IC50 (mouse cortical neurons): 30 µM

Compound: NCCCNCCCCNCCCNCCCNCCCNC(=O)Cc1c[nH]c2ccc(F)cc12 [Compound 4]
- IC50 (NMDA receptor [1]; NMDA/glycine-induced increases in intracellular calcium, cultured rat cerebellar granule cells, read-out: IC50 (μM) vs. NMDA): 0.184 µM
- IC50 [2]: 89 µM
- Suppression of NMDA Receptor-Mediated Synaptic Transmission (concentration which suppresses) (NMDA receptor [5]): 10 to 100 µM
- LTP Assay (block of the induction of LTP) (induction of LTP): no block
- reduction in neuronal death / protection in region CA1 of the hippocampus [6]: 90%
- reduction in the volume of the brain infarct (permanent focal ischemia): 20%
- reduction in the volume of the infarct (focal ischemia): 20%
- reduction in the volume of the brain infarct (temporary focal ischemia): 37%
- EC50 in the audiogenic seizure model (audiogenic seizures; mouse, in vivo): 0.08 mg/kg
- IC50, prevention of sound-induced seizures (sound-induced seizures; [20]): 4.77 µg
- IC50, inhibition of acetic acid-induced writhing [8]: 1 mg/kg
- antinociceptive effect, hot plate (thermal nociception [10]): dose- and time-dependent antinociceptive effects
- analgesic effect, tail flick (52° C. warm water) (thermal nociception [11]): dose- and time-dependent analgesic effect
- late-phase flinching, administered after the formalin [12]: significance achieved at the 3 and 10 nmol doses
- flinching behaviors, pretreatment to formalin [12]: effectively inhibited both early- and late-phase flinching behaviors
- TD50, acute motor impairment (motor performance [14]; Frings mice, i.c.v. injection): 8 to 16 µg
- learning in the Morris water maze (learning): impaired learning
- Drop in Mean Arterial Blood Pressure [17]: 40 mm Hg at
- Drop in Mean Arterial Blood Pressure: duration [17]: i.v., 120 min
- drop in mean arterial pressure ([17]; 10 mg/kg i.p.): 40 mm Hg
- persistence of the drop in mean arterial pressure ([17]; 10 mg/kg i.p.): 90 to 120 min
